pEC50, pKi: −log10 of the molar value.

Assay [1] concerns Tyk2-pSTAT4 (IL-12 induced pSTAT4). Kind of assay: IL-12 induced pSTAT4 in human PBMC. In kind it is cell-based. The note with it: Homo sapiens, PBMC, 0.5 h, 1.7 ng/mL IL-12, 30 minutes. The essentials:
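pSTAT4 and total STAT4 quantified by MSD in cell lysates after 30 minutes of 1.7 ng/mL IL-12 stimulation. Beforehand, compound (0.1% DMSO final) sat 1 hr at 37 C on 200,000 thawed buffy-coat PBMC per well in serum-containing medium.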

Another assay concerns the target JAK2 (Homo sapiens (Human), UniProt O60674). Kind of assay: JAK2 radioactive kinase assay. Type of assay: biochemical. As to conditions: ATP 10 μM. The essentials: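 Radiometric assay in Hepes pH 7.5, MgCl2, EGTA, Brij35, BSA, DTT, 1% DMSO, with 10 μM [33P]ATP, 120 min at room temp; P81 paper capture and counting. […]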
Assay [2] concerns JAK2-pSTAT5 (GM-CSF induced pSTAT5). The assay can be described thus: GM-CSF induced pSTAT5 in human PBMC. In kind it is cell-based. The note with it: Homo sapiens, PBMC, 20 min, 5 ng/mL GM-CSF. The essentials:
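Thawed human PBMC, 200,000 per well in serum-containing medium, were preincubated 1 hr at 37 C with compound in 0.1% DMSO. GM-CSF at 5 ng/mL final was added for 20 minutes, then pSTAT5 and total STAT5 in lysates were measured by MSD immunoassay.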

The target of a further assay is TYK2 (Homo sapiens (Human), UniProt P29597). The assay can be described thus: Tyk2 radioactive kinase assay. Type of assay: biochemical. As to conditions: ATP 10 μM. The essentials:
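Recombinant human TYK2 (Invitrogen) was mixed with 20 μM peptide substrate in a buffer of 20 mM Hepes pH 7.5, 10 mM MgCl2, 1 mM EGTA, 0.02% Brij35, 0.02 mg/mL BSA, 0.1 mM […], 2 mM DTT and 1% DMSO, and compounds in DMSO were added. Adding ^33P-ATP (10 μM ATP) started the reaction, which ran 120 min at room temperature. Mixtures were then spotted onto P81 ion-exchange paper, washed thoroughly in 0.75% phosphoric acid, and counted for radioactivity.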

TYK2, sequence (P29597 whole entry): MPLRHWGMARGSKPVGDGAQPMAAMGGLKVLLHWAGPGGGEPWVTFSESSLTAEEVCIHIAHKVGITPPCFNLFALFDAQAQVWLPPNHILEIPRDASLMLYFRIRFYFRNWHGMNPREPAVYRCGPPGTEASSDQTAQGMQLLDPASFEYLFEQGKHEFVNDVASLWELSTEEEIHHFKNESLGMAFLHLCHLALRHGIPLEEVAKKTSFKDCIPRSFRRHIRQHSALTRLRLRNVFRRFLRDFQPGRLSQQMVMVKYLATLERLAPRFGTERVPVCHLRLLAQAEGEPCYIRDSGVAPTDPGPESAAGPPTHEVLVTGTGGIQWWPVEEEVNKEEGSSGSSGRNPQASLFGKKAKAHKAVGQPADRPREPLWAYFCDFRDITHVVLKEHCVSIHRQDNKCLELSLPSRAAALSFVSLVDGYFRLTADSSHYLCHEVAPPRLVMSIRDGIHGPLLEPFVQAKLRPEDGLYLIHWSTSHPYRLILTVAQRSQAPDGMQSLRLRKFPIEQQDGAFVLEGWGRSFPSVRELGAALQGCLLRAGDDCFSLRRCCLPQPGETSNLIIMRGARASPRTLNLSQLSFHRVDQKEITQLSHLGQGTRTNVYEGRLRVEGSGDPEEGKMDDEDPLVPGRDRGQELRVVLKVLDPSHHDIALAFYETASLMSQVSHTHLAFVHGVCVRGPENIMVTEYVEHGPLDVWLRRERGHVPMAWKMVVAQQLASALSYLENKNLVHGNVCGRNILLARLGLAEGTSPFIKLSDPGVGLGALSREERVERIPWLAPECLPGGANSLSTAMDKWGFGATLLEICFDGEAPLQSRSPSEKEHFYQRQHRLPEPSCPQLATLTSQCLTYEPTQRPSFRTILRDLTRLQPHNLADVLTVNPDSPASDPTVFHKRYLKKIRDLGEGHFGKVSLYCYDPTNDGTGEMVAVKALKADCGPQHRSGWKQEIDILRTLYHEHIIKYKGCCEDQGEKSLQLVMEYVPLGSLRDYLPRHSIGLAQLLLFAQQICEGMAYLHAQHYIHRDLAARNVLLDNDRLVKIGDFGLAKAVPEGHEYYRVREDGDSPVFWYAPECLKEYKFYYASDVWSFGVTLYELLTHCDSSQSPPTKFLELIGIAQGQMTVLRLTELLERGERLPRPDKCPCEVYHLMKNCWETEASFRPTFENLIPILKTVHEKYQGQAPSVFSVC
JAK2, sequence (O60674 whole entry): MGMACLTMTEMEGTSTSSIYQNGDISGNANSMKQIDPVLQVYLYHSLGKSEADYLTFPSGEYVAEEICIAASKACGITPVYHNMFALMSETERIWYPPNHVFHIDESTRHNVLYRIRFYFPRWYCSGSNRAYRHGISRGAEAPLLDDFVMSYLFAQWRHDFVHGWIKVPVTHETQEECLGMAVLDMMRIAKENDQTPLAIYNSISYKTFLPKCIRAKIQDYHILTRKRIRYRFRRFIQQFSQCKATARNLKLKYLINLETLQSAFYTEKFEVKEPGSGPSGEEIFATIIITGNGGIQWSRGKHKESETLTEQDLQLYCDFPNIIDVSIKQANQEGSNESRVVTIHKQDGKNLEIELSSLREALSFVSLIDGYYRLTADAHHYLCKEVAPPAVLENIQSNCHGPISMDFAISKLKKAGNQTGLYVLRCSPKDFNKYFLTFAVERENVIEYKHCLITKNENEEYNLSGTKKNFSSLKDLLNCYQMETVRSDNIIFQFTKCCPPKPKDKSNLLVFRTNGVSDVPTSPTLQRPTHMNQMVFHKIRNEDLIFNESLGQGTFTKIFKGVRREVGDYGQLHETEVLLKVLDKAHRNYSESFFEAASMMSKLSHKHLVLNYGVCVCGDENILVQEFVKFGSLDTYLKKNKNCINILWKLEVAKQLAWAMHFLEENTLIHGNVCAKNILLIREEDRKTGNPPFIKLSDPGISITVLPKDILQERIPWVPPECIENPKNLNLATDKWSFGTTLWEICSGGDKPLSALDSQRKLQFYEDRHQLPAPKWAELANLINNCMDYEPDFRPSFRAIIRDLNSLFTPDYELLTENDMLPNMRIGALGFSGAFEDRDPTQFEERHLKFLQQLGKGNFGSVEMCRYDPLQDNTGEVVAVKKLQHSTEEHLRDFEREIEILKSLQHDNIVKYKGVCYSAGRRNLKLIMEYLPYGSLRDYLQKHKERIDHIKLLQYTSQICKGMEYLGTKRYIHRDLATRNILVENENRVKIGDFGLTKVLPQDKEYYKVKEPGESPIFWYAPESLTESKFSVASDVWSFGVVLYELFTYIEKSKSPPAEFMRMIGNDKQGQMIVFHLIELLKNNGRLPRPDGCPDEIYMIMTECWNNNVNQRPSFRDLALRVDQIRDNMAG

For `C[C@H]1[C@H](O)CCN1c1ccn(-c2cc(-c3c(F)cccc3C#N)nc3c2C(=O)NC3)n1` [I-150, 3-fluoro-2-(4-(3-((2S,3R)-3-hydroxy-2-methylpyrrolidin-1-yl)-1H-pyrazol-1-yl)-5-oxo-6,7-dihydro-5H-pyrrolo[3,4-b]pyridin-2-yl)benzonitrile], the results for the pEC50 in assay [1] and in assay [2] were 7.00 to 7.52 and below 5.70, respectively. For the same compound, the pKi (commonly the Ki on a negative log10 scale, so that one unit is a factor of ten) was 8.00 to 10.00 on JAK2 and 10.00 to 11.05 on TYK2.

With `CC(C)c1ccn(-c2cc(-c3c(F)cccc3C#N)nc3c2C(=O)NC3)n1` [I-151, 3-fluoro-2-(4-(3-isopropyl-1H-pyrazol-1-yl)-5-oxo-6,7-dihydro-5H-pyrrolo[3,4-b]pyridin-2-yl)benzonitrile], the pEC50 (commonly the negative decadic logarithm of the EC50, by convention in mol/L) in assay [1] is 5.70 to 7.00; in assay [2], below 5.70. For the same compound, the pKi at JAK2 was 6.00 to 7.00; at TYK2 it was 8.00 to 10.00.

Turning to `N#Cc1cccc(F)c1-c1cc(-n2ccc(N3CCCC(C(=O)N4CCCC4)C3)n2)c2c(n1)CNC2=O` (stereo not shown) [I-152, 3-fluoro-2-(5-oxo-4-(3-(3-(pyrrolidine-1-carbonyl)piperidin-1-yl)-1H-pyrazol-1-yl)-6,7-dihydro-5H-pyrrolo[3,4-b]pyridin-2-yl)benzonitrile], the pEC50 in assay [1] is 5.70 to 7.00; in assay [2] it was below 5.70. For the same compound, the pKi at JAK2 and at TYK2 was 8.00 to 10.00 throughout.

Turning to `CN1CCN([C@H]2CCCN(c3ccn(-c4cc(-c5c(F)cccc5C#N)nc5c4C(=O)NC5)n3)C2)CC1` [I-155, (S)-3-fluoro-2-(4-(3-(3-(4-methylpiperazin-1-yl)piperidin-1-yl)-1H-pyrazol-1-yl)-5-oxo-6,7-dihydro-5H-pyrrolo[3,4-b]pyridin-2-yl)benzonitrile], the pEC50 in assay [1] is 5.70 to 7.00; in assay [2], below 5.70. For the same compound, the pKi is 7.00 to 8.00 at JAK2 and 8.00 to 10.00 at TYK2.

Turning to `CN1CCN([C@@H]2CCCN(c3ccn(-c4cc(-c5c(F)cccc5C#N)nc5c4C(=O)NC5)n3)C2)CC1` [I-156, (R)-3-fluoro-2-(4-(3-(3-(4-methylpiperazin-1-yl)piperidin-1-yl)-1H-pyrazol-1-yl)-5-oxo-6,7-dihydro-5H-pyrrolo[3,4-b]pyridin-2-yl)benzonitrile], the pEC50 in assay [1] and in assay [2] was 5.70 to 7.00 throughout. For the same compound, the pKi is 7.00 to 8.00 at JAK2 and 8.00 to 10.00 at TYK2.

Consider `N#Cc1cccc(F)c1-c1cc(-n2ccc(N3CCC[C@H](N4CCOCC4)C3)n2)c2c(n1)CNC2=O` [I-157, (S)-3-fluoro-2-(4-(3-(3-morpholinopiperidin-1-yl)-1H-pyrazol-1-yl)-5-oxo-6,7-dihydro-5H-pyrrolo[3,4-b]pyridin-2-yl)benzonitrile], for which the pEC50 in assay [1] was 5.70 to 7.00; in assay [2] it was below 5.70. Moreover, the pKi is 7.00 to 8.00 on JAK2 and 8.00 to 10.00 at TYK2.

`N#Cc1cccc(F)c1-c1cc(-n2ccc(N3CCC[C@@H](N4CCOCC4)C3)n2)c2c(n1)CNC2=O` [I-158, (R)-3-fluoro-2-(4-(3-(3-morpholinopiperidin-1-yl)-1H-pyrazol-1-yl)-5-oxo-6,7-dihydro-5H-pyrrolo[3,4-b]pyridin-2-yl)benzonitrile]: the pEC50 in assay [1] is 5.70 to 7.00; in assay [2] it was below 5.70. In addition, the negative-log Ki (pKi) at JAK2 was 7.00 to 8.00; at TYK2 it was 8.00 to 10.00.

For the compound `CCNC(=O)C1CCCN(c2ccn(-c3cc(-c4c(F)cccc4C#N)nc4c3C(=O)NC4)n2)C1` (stereo not shown) [I-159, 1-(1-(2-(2-cyano-6-fluorophenyl)-5-oxo-6,7-dihydro-5H-pyrrolo[3,4-b]pyridin-4-yl)-1H-pyrazol-3-yl)-N-ethylpiperidine-3-carboxamide], the pEC50 is 5.70 to 7.00 in assay [1] and below 5.70 in assay [2]. The pKi at JAK2 was 7.00 to 8.00; at TYK2 it was 8.00 to 10.00.

Take `CC1O[C@H]2CN(c3ccn(-c4cc(-c5c(F)cccc5C#N)nc5c4C(=O)NC5)n3)C[C@H]2O1` (stereo partly drawn) [I-161, 3-fluoro-2-(4-(3-((3aR,6aS)-2-methyltetrahydro-5H-[1,3]dioxolo-[4,5-c]pyrrol-5-yl)-1H-pyrazol-1-yl)-5-oxo-6,7-dihydro-5H-pyrrolo[3,4-b]pyridin-2-yl)benzonitrile]: the pEC50 in assay [1] and in assay [2] was 5.70 to 7.00 throughout. Further, the pKi on JAK2 is 7.00 to 8.00; on TYK2, 8.00 to 10.00.

Regarding `C[C@]1(O)CN(c2ccn(-c3cc(-c4c(F)cccc4C#N)nc4c3C(=O)NC4)n2)CC[C@H]1O` [I-162, 2-(4-(3-((3S,4R)-3,4-dihydroxy-3-methylpiperidin-1-yl)-1H-pyrazol-1-yl)-5-oxo-6,7-dihydro-5H-pyrrolo[3,4-b]pyridin-2-yl)-3-fluorobenzonitrile], the pEC50 in assay [1] and in assay [2] was 5.70 to 7.00 each time. The results for the pKi on JAK2 and on TYK2 were 8.00 to 10.00 and 10.00 to 11.05, respectively.

`N#Cc1cccc(F)c1-c1cc(-n2ccc(N3CCOC[C@@H]3CO)n2)c2c(n1)CNC2=O` [I-163, (S)-3-fluoro-2-(4-(3-(3-(hydroxymethyl)morpholino)-1H-pyrazol-1-yl)-5-oxo-6,7-dihydro-5H-pyrrolo[3,4-b]pyridin-2-yl)benzonitrile]: the pEC50 in assay [1] and in assay [2] was 5.70 to 7.00 each time. For the same compound, the pKi at JAK2 and at TYK2 was 8.00 to 10.00 throughout.

Take `N#Cc1cccc(F)c1-c1cc(-n2ccc(N3CC[C@]4(CCNC4=O)C3)n2)c2c(n1)CNC2=O` [I-165, (R)-3-fluoro-2-(5-oxo-4-(3-(6-oxo-2,7-diazaspiro[4.4]nonan-2-yl)-1H-pyrazol-1-yl)-6,7-dihydro-5H-pyrrolo[3,4-b]pyridin-2-yl)benzonitrile]: the pEC50 in assay [1] and in assay [2] was 5.70 to 7.00 throughout. In addition, the pKi at JAK2 and on TYK2 was 8.00 to 10.00 each time.

Consider `N#Cc1cccc(F)c1-c1cc(-n2ccc(N3CC[C@@]4(CCNC4=O)C3)n2)c2c(n1)CNC2=O` [I-166, (S)-3-fluoro-2-(5-oxo-4-(3-(6-oxo-2,7-diazaspiro[4.4]nonan-2-yl)-1H-pyrazol-1-yl)-6,7-dihydro-5H-pyrrolo[3,4-b]pyridin-2-yl)benzonitrile], for which the pEC50 in assay [1] and in assay [2] was 5.70 to 7.00 each time. For the same compound, the pKi at JAK2 is 8.00 to 10.00; on TYK2, 10.00 to 11.05.

With `N#Cc1cccc(F)c1-c1cc(-n2ccc(N3CCC[C@H](C(=O)N4CCCC4)C3)n2)c2c(n1)CNC2=O` [I-168, (S)-3-fluoro-2-(5-oxo-4-(3-(3-(pyrrolidine-1-carbonyl)piperidin-1-yl)-1H-pyrazol-1-yl)-6,7-dihydro-5H-pyrrolo[3,4-b]pyridin-2-yl)benzonitrile], the pEC50 in assay [1] and in assay [2] was 5.70 to 7.00 in each case. For the same compound, the pKi on JAK2 and at TYK2 was 8.00 to 10.00 throughout.

Turning to `[2H]C1([2H])CC(O)(C([2H])([2H])[2H])C([2H])([2H])N1c1ccn(-c2cc(-c3c(F)cccc3C#N)nc3c2C(=O)NC3)n1` (stereo not shown) [I-170, 3-fluoro-2-(4-(3-(3-hydroxy-3-(methyl-d3)pyrrolidin-1-yl-2,2,5,5-d4)-1H-pyrazol-1-yl)-5-oxo-6,7-dihydro-5H-pyrrolo[3,4-b]pyridin-2-yl)benzonitrile], the pEC50 in assay [1] was 7.00 to 7.52; in assay [2], below 5.70. Further, the pKi on JAK2 and at TYK2 was 8.00 to 10.00 each time.

`CCNC(=O)[C@H]1CCCN(c2ccn(-c3cc(-c4c(F)cccc4C#N)nc4c3C(=O)NC4)n2)C1` [I-171, (S)-1-(1-(2-(2-cyano-6-fluorophenyl)-5-oxo-6,7-dihydro-5H-pyrrolo[3,4-b]pyridin-4-yl)-1H-pyrazol-3-yl)-N-ethylpiperidine-3-carboxamide]: the figures for the pEC50 in assay [1] and in assay [2] were 5.70 to 7.00 and below 5.70, respectively. Further, the pKi at JAK2 is 7.00 to 8.00; at TYK2 it was 8.00 to 10.00.

Turning to `CCNC(=O)[C@@H]1CCCN(c2ccn(-c3cc(-c4c(F)cccc4C#N)nc4c3C(=O)NC4)n2)C1` [I-172, (R)-1-(1-(2-(2-cyano-6-fluorophenyl)-5-oxo-6,7-dihydro-5H-pyrrolo[3,4-b]pyridin-4-yl)-1H-pyrazol-3-yl)-N-ethylpiperidine-3-carboxamide], the pEC50 in assay [1] is 5.70 to 7.00; in assay [2], below 5.70. Moreover, the pKi on JAK2 was 7.00 to 8.00; at TYK2, 8.00 to 10.00.

Turning to `CO[C@H]1CN(c2ccn(-c3cc(-c4c(F)cccc4C#N)nc4c3C(=O)NC4)n2)CC[C@H]1OC` [I-176, 2-(4-(3-((3S,4R)-3,4-dimethoxypiperidin-1-yl)-1H-pyrazol-1-yl)-5-oxo-6,7-dihydro-5H-pyrrolo[3,4-b]pyridin-2-yl)-3-fluorobenzonitrile], the pEC50 in assay [1] and in assay [2] was 5.70 to 7.00 throughout. The pKi on JAK2 is 7.00 to 8.00; on TYK2, 8.00 to 10.00.

As to `CC(=O)Nc1cnn(-c2cc(-c3c(F)cccc3C#N)nc3c2C(=O)NC3)c1` [I-177, N-(1-(2-(2-cyano-6-fluorophenyl)-5-oxo-6,7-dihydro-5H-pyrrolo[3,4-b]pyridin-4-yl)-1H-pyrazol-4-yl)acetamide], the pEC50 in assay [1] was below 5.70; in assay [2], 5.70 to 7.00. Also, the pKi at JAK2 and at TYK2 was at most 6.00 each time.

Source of the values: patent publication US10781204B2, “TYK2 inhibitors and uses thereof” (Nimbus Lakshmi, Inc., priority 2015, dated 2020).
